Laboratory results: patent US12247032B2, “Substituted pyrazolo[1,5-a]pyrimidines as inhibitors of JAK kinases” (Genentech, Inc., priority 2019, dated 2025)
Like-named read-outs stand apart in the source and are kept apart here.

Assays:
[1] = target: T1, recombinant human JAK1 kinase domain protein (Residues 854-1154) (Homo sapiens, UniProt P23458); assay: JAK1 biochemical assay (microfluidic mobility shift, peptide phosphorylation); conditions: 25 μM ATP, 1 nM total JAK1; Ki calculated from Ki app (tight-binding, competitive); read-out: Biochem JAK1 Ki
T1 construct: human JAK1 kinase domain protein (Residues 854-1154); purchased Proteros Biostructures GmbH (Martinsried, Germany); host or cells: insect cells
Summary of the method: (§1)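 Insect-cell-expressed human JAK1 (1 nM, residues 854-1154) or JAK2 (0.2 nM, residues 812-1132) phosphorylating 1.5 μM 5-FAM peptide Y-1B with 25 μM ATP, pH 7.2 HEPES, 30 min at 22-23 °C; twelve concentrations up to 1000 nM in duplicate. Mobility-shift % conversion fitted to tight-binding quadratic for Ki^app.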

[2] = target: T2, Recombinant human JAK2 kinase domain protein (Residues 812-1132) (Homo sapiens, UniProt O60674); assay: JAK2 biochemical assay (microfluidic mobility shift, peptide phosphorylation); conditions: 25 μM ATP, 0.2 nM total JAK2; Ki calculated from Ki app (tight-binding, competitive); read-out: Biochem JAK2 Ki
T2 construct: human JAK2 kinase domain protein (Residues 812-1132); made in house; host or cells: insect cells
Summary of the method: as §1

[3] = tested on: JAK1 (IL-13-stimulated STAT6 phosphorylation in BEAS-2B cells); assay: P-STAT6 BEAS-2B+IL-13 cell assay; type: cell-based, human; conditions: 1 hour compound, IL-13 15 minutes, IC50 by four-parameter fit, read-out: Cellular JAK1 PSTAT6 BEAS2B + IL13
Summary of the method: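 BEAS-2B human bronchial epithelial cells preincubated 1 h at 37 °C with compound, then stimulated with human recombinant IL-13 for 15 min. Phospho-STAT6 (Tyr641) in lysates measured by MSD electrochemiluminescence immunoassay; IC50 from a four-parameter logistic fit of percent of control.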

T2 sequence (O60674 812-1132): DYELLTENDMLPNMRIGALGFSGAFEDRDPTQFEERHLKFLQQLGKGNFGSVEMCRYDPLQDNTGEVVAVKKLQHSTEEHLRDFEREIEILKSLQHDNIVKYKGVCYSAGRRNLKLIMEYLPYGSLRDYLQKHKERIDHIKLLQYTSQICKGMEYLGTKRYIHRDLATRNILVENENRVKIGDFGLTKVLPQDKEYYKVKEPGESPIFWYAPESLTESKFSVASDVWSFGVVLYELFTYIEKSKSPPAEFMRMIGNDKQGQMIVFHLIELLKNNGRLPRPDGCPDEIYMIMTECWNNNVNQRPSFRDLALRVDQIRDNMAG
T1 sequence (P23458 854-1154): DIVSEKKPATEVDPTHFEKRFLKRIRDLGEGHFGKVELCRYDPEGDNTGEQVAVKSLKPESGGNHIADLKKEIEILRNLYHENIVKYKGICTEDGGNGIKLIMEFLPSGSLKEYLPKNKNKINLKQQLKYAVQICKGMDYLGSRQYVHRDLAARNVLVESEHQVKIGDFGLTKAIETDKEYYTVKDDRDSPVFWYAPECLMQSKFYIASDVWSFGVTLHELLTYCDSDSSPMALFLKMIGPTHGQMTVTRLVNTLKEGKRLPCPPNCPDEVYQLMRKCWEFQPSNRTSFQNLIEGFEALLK

## CN(C)[C@H]1C[C@@H](n2nnc(Cn3cc(NC(=O)c4cnn5cccnc45)c(-c4cc(OC(F)F)ccc4OC(F)F)n3)n2)C1 [Example 63, N-[3-[2,5-bis(difluoromethoxy)phenyl]-1-[[2-[3-(dimethylamino)cyclobutyl]tetrazol-5-yl]methyl]pyrazol-4-yl]pyrazolo[1,5-a]pyrimidine-3-carboxamide]
[1]
  Ki: 640 pM
[2]
  Ki: 460 pM
[3]; Homo sapiens, BEAS-2B, 1 h
  IC50: 22000 pM

## CN(C)CCCN1CC(n2nnc(Cn3cc(NC(=O)c4cnn5cccnc45)c(-c4cc(C5CC5)ccc4OC(F)F)n3)n2)C1 [Example 57, N-[3-[5-cyclopropyl-2-(difluoromethoxy)phenyl]-1-[[2-[1-[3-(dimethylamino)propyl]azetidin-3-yl]tetrazol-5-yl]methyl]pyrazol-4-yl]pyrazolo[1,5-a]pyrimidine-3-carboxamide]
[1]
  Ki: 710 pM
[2]
  Ki: 550 pM
[3]; Homo sapiens, BEAS-2B, 1 h
  IC50: 73000 pM

## CN(C)C1CCC(N2CC(n3nnc(Cn4cc(NC(=O)c5cnn6cccnc56)c(-c5cc(OC(F)F)ccc5OC(F)F)n4)n3)C2)C1 (single isomer, unassigned) [Example 75, N-[3-[2,5-bis(difluoromethoxy)phenyl]-1-[[2-[1-[3-(dimethylamino)cyclopentyl]azetidin-3-yl]tetrazol-5-yl]methyl]pyrazol-4-yl]pyrazolo[1,5-a]pyrimidine-3-carboxamide]
[1]
  Ki: 1100 pM
[2]
  Ki: 1100 pM
[3]
  IC50: 200000 pM

## CN(C)CCN(C)C1CC(n2nnc(Cn3cc(NC(=O)c4cnn5cccnc45)c(-c4cc(OC(F)F)ccc4OC(F)F)n3)n2)C1 (single isomer, unassigned) [Example 81, N-[3-[2,5-bis(difluoromethoxy)phenyl]-1-[[2-[3-[2-(dimethylamino)ethyl-methyl-amino]cyclobutyl]tetrazol-5-yl]methyl]pyrazol-4-yl]pyrazolo[1,5-a]pyrimidine-3-carboxamide; formic acid]
[1]
  Ki: 520 pM
[2]
  Ki: 470 pM
[3]; Homo sapiens, BEAS-2B, 1 h
  IC50: 29000 pM

## CN(C)C1CCN(CCn2nnnc2Cn2cc(NC(=O)c3cnn4cccnc34)c(-c3cc(OC(F)F)ccc3OC(F)F)n2)CC1 [Example 60, N-[3-[2,5-bis(difluoromethoxy)phenyl]-1-[[1-[2-[4-(dimethylamino)-1-piperidyl]ethyl]tetrazol-5-yl]methyl]pyrazol-4-yl]pyrazolo[1,5-a]pyrimidine-3-carboxamide]
[1]
  Ki: 810 pM
[2]
  Ki: 970 pM
[3]; Homo sapiens, BEAS-2B, 1 h
  IC50: 70000 pM

## CN(C)CCN1CCC(n2nnc(Cn3cc(NC(=O)c4cnn5cccnc45)c(-c4cc(OC(F)F)ccc4OC(F)F)n3)n2)C1 (single isomer, unassigned) [Example 67, N-[3-[2,5-bis(difluoromethoxy)phenyl]-1-[[2-[1-[2-(dimethylamino)ethyl]pyrrolidin-3-yl]tetrazol-5-yl]methyl]pyrazol-4-yl]pyrazolo[1,5-a]pyrimidine-3-carboxamide]
[1]
  Ki: 530 pM
[2]
  Ki: 420 pM
[3]; Homo sapiens, BEAS-2B, 1 h
  IC50: 56000 pM

## CN1CC(Cn2nnnc2Cn2cc(NC(=O)c3cnn4cccnc34)c(-c3cc(OC(F)F)ccc3OC(F)F)n2)C1 [Example 33, N-[3-[2,5-bis(difluoromethoxy)phenyl]-1-[[1-[(1-methylazetidin-3-yl)methyl]tetrazol-5-yl]methyl]pyrazol-4-yl]pyrazolo[1,5-a]pyrimidine-3-carboxamide]
[1]
  Ki: 550 pM
[2]
  Ki: 560 pM
[3]; Homo sapiens, BEAS-2B, 1 h
  IC50: 51000 pM

## CN1CCC[C@H]1Cn1nnc(Cn2cc(NC(=O)c3cnn4cccnc34)c(-c3cc(OC(F)F)ccc3OC(F)F)n2)n1 (stereo in doubt) [Example 53, N-[3-[2,5-bis(difluoromethoxy)phenyl]-1-[[2-[[rac-(2S)-1-methylpyrrolidin-2-yl]methyl]tetrazol-5-yl]methyl]pyrazol-4-yl]pyrazolo[1,5-a]pyrimidine-3-carboxamide]
[1]
  Ki: 480 pM
[2]
  Ki: 320 pM
[3]; Homo sapiens, BEAS-2B, 1 h
  IC50: 35000 pM

## CN1CCC(N2CC(n3nnc(Cn4cc(NC(=O)c5cnn6cccnc56)c(-c5cc(OC(F)F)ccc5OC(F)F)n4)n3)C2)C1 (single isomer, unassigned) [Example 73, N-[3-[2,5-bis(difluoromethoxy)phenyl]-1-[[2-[1-(1-methylpyrrolidin-3-yl)azetidin-3-yl]tetrazol-5-yl]methyl]pyrazol-4-yl]pyrazolo[1,5-a]pyrimidine-3-carboxamide]
[1]
  Ki: 640 pM
[2]
  Ki: 550 pM
[3]
  IC50: 43000 pM

## CN1CCC(n2nnc(Cn3cc(NC(=O)c4cnn5cccnc45)c(-c4cc(OC(F)F)ccc4OC(F)F)n3)n2)C1 (single isomer, unassigned) [Example 30, N-[3-[2,5-bis(difluoromethoxy)phenyl]-1-[[2-(1-methylpyrrolidin-3-yl)tetrazol-5-yl]methyl]pyrazol-4-yl]pyrazolo[1,5-a]pyrimidine-3-carboxamide]
[1]
  Ki: 400 pM
[2]
  Ki: 310 pM
[3]
  IC50: 17000 pM

## O=C(Nc1cn(Cc2nnn(C3COC3)n2)nc1-c1cc(Cl)ccc1OC(F)F)c1cnn2cccnc12 [Example 4, N-[3-[5-chloro-2-(difluoromethoxy)phenyl]-1-[[2-(oxetan-3-yl)tetrazol-5-yl]methyl]pyrazol-4-yl]pyrazolo[1,5-a]pyrimidine-3-carboxamide]
[1]
  Ki: 230 pM
[2]
  Ki: 120 pM
[3]; Homo sapiens, BEAS-2B, 1 h
  IC50: 6800 pM

## CC(C)Sc1ccc(OC(F)F)c(-c2nn(Cc3nnn(C4CN(C5CCN(C)CC5)C4)n3)cc2NC(=O)c2cnn3cccnc23)c1 [Example 79, N-[3-[2-(difluoromethoxy)-5-isopropylsulfanyl-phenyl]-1-[[2-[1-(1-methyl-4-piperidyl)azetidin-3-yl]tetrazol-5-yl]methyl]pyrazol-4-yl]pyrazolo[1,5-a]pyrimidine-3-carboxamide]
[1]
  Ki: 500 pM
[2]
  Ki: 440 pM
[3]; Homo sapiens, BEAS-2B, 1 h
  IC50: 40000 pM

## CN1CC(N(C)CCn2nnc(Cn3cc(NC(=O)c4cnn5cccnc45)c(-c4cc(OC(F)F)ccc4OC(F)F)n3)n2)C1 [Example 48, N-[3-[2,5-bis(difluoromethoxy)phenyl]-1-[[2-[2-[methyl-(1-methylazetidin-3-yl)amino]ethyl]tetrazol-5-yl]methyl]pyrazol-4-yl]pyrazolo[1,5-a]pyrimidine-3-carboxamide]
[1]
  Ki: 630 pM
[2]
  Ki: 540 pM
[3]; Homo sapiens, BEAS-2B, 1 h
  IC50: 15000 pM

## CN(C)CCN1CCC(n2nnc(Cn3cc(NC(=O)c4cnn5cccnc45)c(-c4cc(OC(F)F)ccc4OC(F)F)n3)n2)C1 (single isomer, unassigned) [Example 68, N-[3-[2,5-bis(difluoromethoxy)phenyl]-1-[[2-[1-[2-(dimethylamino)ethyl]pyrrolidin-3-yl]tetrazol-5-yl]methyl]pyrazol-4-yl]pyrazolo[1,5-a]pyrimidine-3-carboxamide]
[1]
  Ki: 460 pM
[2]
  Ki: 430 pM
[3]
  IC50: 41000 pM

## CSc1ccc(OC(F)F)c(-c2nn(Cc3nnn(CCN)n3)cc2NC(=O)c2cnn3cccnc23)c1 [Example 35, N-[1-[[2-(2-aminoethyl)tetrazol-5-yl]methyl]-3-[2-(difluoromethoxy)-5-methylsulfanyl-phenyl]pyrazol-4-yl]pyrazolo[1,5-a]pyrimidine-3-carboxamide]
[1]
  Ki: 370 pM
[2]
  Ki: 180 pM
[3]; Homo sapiens, BEAS-2B, 1 h
  IC50: 13000 pM

## CN(C)C1CCC(N2CC(n3nnc(Cn4cc(NC(=O)c5cnn6cccnc56)c(-c5cc(OC(F)F)ccc5OC(F)F)n4)n3)C2)C1 (single isomer, unassigned) [Example 76, N-[3-[2,5-bis(difluoromethoxy)phenyl]-1-[[2-[1-[3-(dimethylamino)cyclopentyl]azetidin-3-yl]tetrazol-5-yl]methyl]pyrazol-4-yl]pyrazolo[1,5-a]pyrimidine-3-carboxamide]
[1]
  Ki: 2400 pM
[2]
  Ki: 1900 pM
[3]
  IC50: 74000 pM

## CN(C)C(C)(C)CCN1CC(n2nnc(Cn3cc(NC(=O)c4cnn5cccnc45)c(-c4cc(OC(F)F)ccc4OC(F)F)n3)n2)C1 [Example 77, N-[3-[2,5-bis(difluoromethoxy)phenyl]-1-[[2-[1-[3-(dimethylamino)-3-methyl-butyl]azetidin-3-yl]tetrazol-5-yl]methyl]pyrazol-4-yl]pyrazolo[1,5-a]pyrimidine-3-carboxamide]
[1]
  Ki: 380 pM
[2]
  Ki: 390 pM
[3]; Homo sapiens, BEAS-2B, 1 h
  IC50: 110000 pM

## CN(C)CCN(C)C1CC(n2nnc(Cn3cc(NC(=O)c4cnn5cccnc45)c(-c4cc(OC(F)F)ccc4OC(F)F)n3)n2)C1 (single isomer, unassigned) [Example 82, N-[3-[2,5-bis(difluoromethoxy)phenyl]-1-[[2-[3-[2-(dimethylamino)ethyl-methyl-amino]cyclobutyl]tetrazol-5-yl]methyl]pyrazol-4-yl]pyrazolo[1,5-a]pyrimidine-3-carboxamide; formic acid]
[1]
  Ki: 540 pM
[2]
  Ki: 470 pM
[3]; formic acid
  IC50: 32000 pM
